Results taken from PubChem BioAssay AID651990 (The Scripps Research Institute Molecular Screening Center, 2013).
Active and inactive are the calls of the source. How the calls were made is not given here.

Experiments:
[1] = target: Acyl-protein thioesterase 2 (Homo sapiens) (UniProt O95372); assay: concentration-dependent LYPLA1/LYPLA2 inhibition – gel-based ABPP, fluorescence, HEK293T proteome, dose response (AID 651990); conditions: HEK293T soluble proteome, gel-based ABPP FP-PEG-Rh fluorescence; LYPLA2
[2] = target: Acyl-protein thioesterase 1 (Homo sapiens) (UniProt O75608); assay: as above; conditions: HEK293T soluble proteome, gel-based ABPP FP-PEG-Rh fluorescence; LYPLA1
Acyl-protein thioesterase 1 (Homo sapiens), sequence (O75608 whole entry, looked up): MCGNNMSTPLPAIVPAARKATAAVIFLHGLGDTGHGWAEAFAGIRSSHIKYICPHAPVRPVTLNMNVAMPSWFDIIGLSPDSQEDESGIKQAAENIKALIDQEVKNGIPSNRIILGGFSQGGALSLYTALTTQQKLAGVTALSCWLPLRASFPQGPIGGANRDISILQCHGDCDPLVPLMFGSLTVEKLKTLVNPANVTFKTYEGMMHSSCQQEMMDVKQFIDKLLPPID

Acyl-protein thioesterase 2 (Homo sapiens), sequence (O95372 whole entry, looked up): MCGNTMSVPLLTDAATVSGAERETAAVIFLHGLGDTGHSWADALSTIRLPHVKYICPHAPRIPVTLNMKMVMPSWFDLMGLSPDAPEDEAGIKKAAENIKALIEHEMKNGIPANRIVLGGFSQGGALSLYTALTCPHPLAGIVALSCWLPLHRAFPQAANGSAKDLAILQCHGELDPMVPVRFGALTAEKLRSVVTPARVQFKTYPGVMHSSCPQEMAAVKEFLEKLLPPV

IC50 [1]	IC50 [2]	Compound
> 3000 nM (inactive)	–	O=C(CN1CCN(C(=O)c2ccco2)CC1)Nc1cc(C(F)(F)F)ccc1Cl
144 nM	> 3000 nM (inactive)	COc1ccc(N2CCN(C(=O)c3cc4c(s3)-c3ccccc3S(=O)(=O)C4)CC2)cc1
